Measured values published in patent US20100184094A1, “USE OF MDCK CELLS IN THE EVALUATION OF CHOLESTEROL MODULATORS” (priority 2007, published 2010).
Values belong to the molecule of their own block, whether it stands above or below them.

Tests used:
human NPC1L1 [1] = biological target: T1, human NPC1L1 (Homo sapiens, UniProt Q9UHC9); assay: [3H]AS binding to hNPC1L1/MDCKII-Flp cells; details: FIG. 7D, read-out: Ki inhibition of [3H]AS binding
T1 construct: expressed in transfected cells
T1 sequence (Q9UHC9 22-1359): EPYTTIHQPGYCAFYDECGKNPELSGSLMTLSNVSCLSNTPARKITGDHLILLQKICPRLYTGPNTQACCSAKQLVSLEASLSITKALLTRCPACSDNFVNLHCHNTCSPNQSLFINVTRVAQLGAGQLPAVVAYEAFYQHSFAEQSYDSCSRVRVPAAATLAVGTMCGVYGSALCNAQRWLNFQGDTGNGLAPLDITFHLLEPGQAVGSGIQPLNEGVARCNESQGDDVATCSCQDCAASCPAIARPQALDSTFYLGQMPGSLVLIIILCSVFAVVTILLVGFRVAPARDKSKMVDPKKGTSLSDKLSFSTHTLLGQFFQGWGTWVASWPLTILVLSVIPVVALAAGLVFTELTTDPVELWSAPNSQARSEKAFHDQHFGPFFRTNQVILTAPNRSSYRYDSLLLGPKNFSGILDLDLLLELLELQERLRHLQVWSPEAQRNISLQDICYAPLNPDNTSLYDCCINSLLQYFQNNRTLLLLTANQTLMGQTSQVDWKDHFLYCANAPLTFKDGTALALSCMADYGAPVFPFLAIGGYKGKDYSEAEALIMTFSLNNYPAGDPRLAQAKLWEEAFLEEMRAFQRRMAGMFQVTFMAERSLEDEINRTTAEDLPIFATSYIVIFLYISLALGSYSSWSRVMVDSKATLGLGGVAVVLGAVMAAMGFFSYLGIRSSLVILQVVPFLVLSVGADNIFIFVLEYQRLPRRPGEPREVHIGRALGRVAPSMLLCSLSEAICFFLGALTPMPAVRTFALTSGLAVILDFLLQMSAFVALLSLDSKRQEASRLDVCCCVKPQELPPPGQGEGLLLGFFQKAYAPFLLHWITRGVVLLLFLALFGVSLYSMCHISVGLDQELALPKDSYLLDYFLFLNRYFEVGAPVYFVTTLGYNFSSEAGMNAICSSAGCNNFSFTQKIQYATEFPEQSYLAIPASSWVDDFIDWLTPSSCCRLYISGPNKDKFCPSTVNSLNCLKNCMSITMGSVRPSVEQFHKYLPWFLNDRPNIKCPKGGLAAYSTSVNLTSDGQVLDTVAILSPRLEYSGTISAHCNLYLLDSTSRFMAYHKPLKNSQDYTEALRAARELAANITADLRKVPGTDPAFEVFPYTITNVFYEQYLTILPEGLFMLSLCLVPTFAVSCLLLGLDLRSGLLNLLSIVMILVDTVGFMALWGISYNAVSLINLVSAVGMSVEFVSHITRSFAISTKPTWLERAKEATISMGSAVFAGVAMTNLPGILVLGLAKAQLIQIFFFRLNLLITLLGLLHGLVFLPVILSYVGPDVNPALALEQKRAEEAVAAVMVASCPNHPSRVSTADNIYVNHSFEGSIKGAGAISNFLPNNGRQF
Protocol: (§1) rNPC1L1/HEK293 and TsA201 cells were seeded at a density of 10,000 cells per well in 96-well poly-D-lysine coated plates and cells were allowed to attach for approximately 18 h at 37° C. TsA201 cells were subsequently transfected with dog NPC1L1/pcDNA5/FRT according to the manufacturer's instructions (Roche) and incubated for 3 days at 37° C. MDCKII-derived, LLC-PKI, HepG2, or CaCo-2 cells were seeded at a density of 25,000 cells per well in 96-well tissue culture treated plates, and cells were allowed to attach and differentiate for approximately 72 h at 37° C., except for CaCo-2 cells where differentiation took approximately 14 days at 37° C. […] Duplicate samples were averaged for each experimental point. […] Dissociation kinetics were determined by addition of 100 μM EZE-gluc, and incubating for different periods of time. Nonspecific binding was defined in the presence of 100 μM EZE-gluc. At the end of the incubation period, cells were washed twice with 200 μl of pre-warmed DMEM to separate bound from free ligand, 1% SDS was added to the wells followed by 5 ml of Scintillant, and radioactivity associated with cells was determined using a β-counter. […] Thereafter, plates were placed on ice and cells were washed twice with ice-cold PBS, followed by ice-cold acid wash with DMEM, pH 3.5, for 1, 5 or 15 minutes. […] For Transwell experiments, MDCKII cells were seeded at 200,000 cells/well in a 24-well plate and incubated for 3 days at 37° C. […] Thereafter, both apical and basolateral compartments were washed three times with PBS, and the Transwell filter was cut out and its associated radioactivity determined using afi-counter. Data from saturation, competition and ligand dissociation experiments were analyzed as described in the literature; see, Priest, et al., 2004 Biochemistry 43:9866-9876; Knaus et al., 1995 Biochemistry 34:13627-13634. The association rate, k1, was determined by employing the pseudo-first-order rate equation k1=kobs([LR]e/[L][LR]max)) where [LR]max is the concentration of the complex at equilibrium, [L] is the concentration of ligand, [LR]max is the total receptor concentration, kobs is the slope of the pseudo-first order plot, ln([LR]e/([LR]e−[LR]t)) versus time, and [LR]t is the receptor-ligand complex at one given time point t.
To validate MDCKII cells as an appropriate surrogate system for monitoring NPC1L1-dependent processes, we evaluated their ability to perform EZE-sensitive cholesterol flux using a similar protocol to that recently reported. This assay makes use of the ability of βmCD to deplete membrane-bound cholesterol. […]
(§2) To further characterize the [^3H] cholesterol influx process into MDCK cells, the potency of EZE-like compound PS for inhibiting [^3H] cholesterol uptake was determined.

human NPC1L1 [2] = biological target: T1, human NPC1L1; assay: [3H]cholesterol flux into hNPC1L1/MDCKII-Flp cells; format: cell-based; details: hNPC1L1/MDCKII-Flp, FIG. 7D; read-out: IC50 block of [3H]cholesterol flux
Protocol: Flux assays were performed essentially as described by Yu et al., 2006 J Biol. Chem. 281:6616-6624. Briefly, cell growth medium was completely aspirated and replaced with 200 μl of 5% LPDS containing the appropriate concentration of compound and incubated at 37° C./3 h in a 5% CO2 incubator. Media was subsequently aspirated from cells and cells were incubated in 200 μl of 0-5.5% βmCD dissolved and filtered through a […] filter at 37° C./45 minutes in a 5% CO2 incubator. Media was dumped from cells that were then washed twice with 125 μl of 5% LPDS before media was aspirated and [3H]cholesterol complexed to BSA in 5% LPDS was added; see Yu et al., 2006 J. Biol. Chem. 281:6616-6624. After 45 minute incubation, cells were washed twice with DMEM, thoroughly aspirated and then 1% SDS was added prior to extraction for scintillation counting.
To validate MDCKII cells as an appropriate surrogate system for monitoring NPC1L1-dependent processes, we evaluated their ability to perform EZE-sensitive cholesterol flux using a similar protocol to that recently reported. This assay makes use of the ability of βmCD to deplete membrane-bound cholesterol. Subsequent exposure of cells to [^3H] cholesterol provides a time-dependent flux of this substrate into the cells. […] In an attempt to improve the assay window, a stable MDCKII-Flp cell line over-expressing human NPC1L1, hNPC1L1/MDCKII-Flp, was generated.
as §2

rat NPC1L1 = biological target: T2, rat NPC1L1 (Rattus norvegicus, UniProt Q6T3U3); assay: [3H]AS binding to rNPC1L1/HEK293 cells (saturation, kinetics, competition, acid wash)
T2 construct: expressed in transfected cells
Protocol: rNPC1L1/HEK293 and TsA201 cells were seeded at a density of 10,000 cells per well in 96-well poly-D-lysine coated plates and cells were allowed to attach for approximately 18 h at 37° C. TsA201 cells were subsequently transfected with dog NPC1L1/pcDNA5/FRT according to the manufacturer's instructions (Roche) and incubated for 3 days at 37° C. MDCKII-derived, LLC-PKI, HepG2, or CaCo-2 cells were seeded at a density of 25,000 cells per well in 96-well tissue culture treated plates, and cells were allowed to attach and differentiate for approximately 72 h at 37° C., except for CaCo-2 cells where differentiation took approximately 14 days at 37° C. […] Duplicate samples were averaged for each experimental point. […] To determine the kinetics of ligand association, cells were incubated with [^3H]AS for different periods of time. Dissociation kinetics were determined by addition of 100 μM EZE-gluc, and incubating for different periods of time. Nonspecific binding was defined in the presence of 100 μM EZE-gluc. At the end of the incubation period, cells were washed twice with 200 μl of pre-warmed DMEM to separate bound from free ligand, 1% SDS was added to the wells followed by 5 ml of Scintillant, and radioactivity associated with cells was determined using a β-counter. […] Thereafter, plates were placed on ice and cells were washed twice with ice-cold PBS, followed by ice-cold acid wash with DMEM, pH 3.5, for 1, 5 or 15 minutes. […] For Transwell experiments, MDCKII cells were seeded at 200,000 cells/well in a 24-well plate and incubated for 3 days at 37° C. […] Thereafter, both apical and basolateral compartments were washed three times with PBS, and the Transwell filter was cut out and its associated radioactivity determined using afi-counter. Data from saturation, competition and ligand dissociation experiments were analyzed as described in the literature; see, Priest, et al., 2004 Biochemistry 43:9866-9876; Knaus et al., 1995 Biochemistry 34:13627-13634. The association rate, k1, was determined by employing the pseudo-first-order rate equation k1=kobs([LR]e/[L][LR]max)) where [LR]max is the concentration of the complex at equilibrium, [L] is the concentration of ligand, [LR]max is the total receptor concentration, kobs is the slope of the pseudo-first order plot, ln([LR]e/([LR]e−[LR]t)) versus time, and [LR]t is the receptor-ligand complex at one given time point t.
Incubation of rNPC1L1/HEK293 cells with 5 nM [311]AS results in a time-dependent association of ligand with cells that reaches equilibrium in ˜3 h (FIG. 1B). The nonspecific binding component is time-independent and has been subtracted from the experimental data. A semilogarithmic transformation of the data yielded a linear dependence (FIG. 1B, inset), as expected for a pseudo-first order reaction, and the slope of this line gives kobs of 0.0208 min^−1. The association rate constant, k1, calculated as described under Example 3, is 2.4×10^6 M^−1 min^−1.
Ki values, determined as described above, are presented in Table 1 below and display the expected rank order of potency for interaction of these ligands with rat NPC1L1; Garcia-Calvo et al., 2005 Proc. Natl. Acad. Sci. USA 102:8132-8137.
Such an approach has previously been previously used to characterize cell surface, non-covalent interactions; Hopkins & Trowbridge, 1983 J. Cell Biol. 97:508-521; Chen et al., 1998 Proc. Natl. Acad. USA 95:6373-6378.

[3] = biological target: dog NPC1L1 endogenously expressed in MDCKII cells (Canis lupus familiaris, UniProt A0A8I3RZG1); assay: [3H]AS binding to MDCKII cells (saturation, kinetics, competition, acid wash)
Protocol: as §1

dog NPC1L1 = dog NPC1L1 (Canis lupus familiaris, UniProt A0A8I3RZG1); assay: [3H]AS binding to dog NPC1L1 transiently expressed in TsA201 cells
Protocol: as §1
To further validate this statement, cloned dog NPC1L1 was transiently expressed in TsA201 cells and binding of [^3]AS to these cells was then characterized (FIG. 5 and Table 1).

[4] = system: surface expression of NPC1L1 in MDCKII cells; assay: Effect of lovastatin on surface expression of NPC1L1 ([3H]AS binding) in MDCKII cells; format: cell-based, dog; details: 4 μM lovastatin; for effect on [3H]AS binding: cells grown in 5% LPDS, 72 h
Protocol: To determine whether the expression pattern of NPC1L1 in MDCKII cells is sensitive to changes in the endogenous concentration of cholesterol, MDCKII cells were seeded and grown in either 10% FBS or 5% lipoprotein deficient serum (5% LPDS) in the absence or presence of the HMG CoA reductase inhibitor, lovastatin.

Sequence of dog NPC1L1 endogenously expressed in MDCKII cells (A0A8I3RZG1 entry or part of it): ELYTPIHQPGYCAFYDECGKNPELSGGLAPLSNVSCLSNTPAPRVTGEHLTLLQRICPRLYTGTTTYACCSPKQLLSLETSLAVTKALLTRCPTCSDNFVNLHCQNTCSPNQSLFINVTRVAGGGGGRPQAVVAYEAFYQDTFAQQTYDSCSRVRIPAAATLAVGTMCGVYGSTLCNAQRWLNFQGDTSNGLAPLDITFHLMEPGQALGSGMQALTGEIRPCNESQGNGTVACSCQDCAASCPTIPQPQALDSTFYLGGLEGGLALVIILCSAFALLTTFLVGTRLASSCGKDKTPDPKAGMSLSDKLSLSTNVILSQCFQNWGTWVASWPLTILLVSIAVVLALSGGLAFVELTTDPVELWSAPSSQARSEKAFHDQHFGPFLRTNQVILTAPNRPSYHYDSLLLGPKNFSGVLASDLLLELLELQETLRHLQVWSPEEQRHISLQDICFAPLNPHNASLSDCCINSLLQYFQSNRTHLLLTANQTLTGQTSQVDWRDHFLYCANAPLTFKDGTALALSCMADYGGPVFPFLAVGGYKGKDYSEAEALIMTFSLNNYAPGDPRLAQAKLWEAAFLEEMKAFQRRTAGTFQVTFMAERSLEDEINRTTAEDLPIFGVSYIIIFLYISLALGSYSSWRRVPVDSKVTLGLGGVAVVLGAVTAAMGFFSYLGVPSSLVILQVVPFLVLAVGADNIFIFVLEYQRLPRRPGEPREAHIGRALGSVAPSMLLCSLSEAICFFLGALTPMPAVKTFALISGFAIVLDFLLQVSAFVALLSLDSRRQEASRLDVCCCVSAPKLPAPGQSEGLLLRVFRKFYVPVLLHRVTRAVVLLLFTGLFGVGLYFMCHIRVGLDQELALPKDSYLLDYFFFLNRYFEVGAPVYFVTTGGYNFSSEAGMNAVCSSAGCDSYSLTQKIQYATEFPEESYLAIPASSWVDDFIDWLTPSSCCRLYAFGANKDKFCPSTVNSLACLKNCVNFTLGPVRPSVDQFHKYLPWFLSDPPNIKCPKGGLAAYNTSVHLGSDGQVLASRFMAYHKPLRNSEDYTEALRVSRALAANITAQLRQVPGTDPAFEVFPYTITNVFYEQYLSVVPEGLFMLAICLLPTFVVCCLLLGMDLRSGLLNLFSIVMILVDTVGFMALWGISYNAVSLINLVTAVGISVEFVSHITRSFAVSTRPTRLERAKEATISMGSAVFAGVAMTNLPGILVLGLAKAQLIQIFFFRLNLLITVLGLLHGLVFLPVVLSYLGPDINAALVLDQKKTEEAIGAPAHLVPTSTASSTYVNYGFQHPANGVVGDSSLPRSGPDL
Sequence of dog NPC1L1 (A0A8I3RZG1 entry or part of it): as above

Ki (human NPC1L1 [1]): > 100000 nM
IC50 (human NPC1L1 [2]): > 100000 nM
Structure (SMILES): O=C(O)C1OC(Oc2ccc(C3C(CCC(O)c4ccc(F)cc4)C(=O)N3c3ccc(F)cc3)cc2)C(O)C(O)C1O (single isomer, unassigned; ent-1) [ent-1]

IC50 (rat NPC1L1; 5.36 nM [3H]AS, 4 h, 37° C., read-out: IC50 inhibition of [3H]AS binding): 5.25 nM
Ki (rat NPC1L1; rNPC1L1/HEK293 cells): 2.35 ± 0.49 nM
Kd (rat NPC1L1; rNPC1L1/HEK293 cells, increasing [3H]AS, 4 h, 37° C., read-out: Kd (equilibrium dissociation constant, saturation binding)): 4.62 ± 0.69 nM
IC50 ([3]; 5.49 nM [3H]AS, 4 h, 37° C., read-out: IC50 inhibition of [3H]AS binding): 2.86 nM
Ki ([3]; MDCKII cells): 0.34 ± 0.04 nM
Kd ([3]; MDCKII cells, increasing [3H]AS, 4 h, 37° C.): 0.59 ± 0.07 nM
IC50 (dog NPC1L1; 4.65 nM [3H]AS, 4 h, 37° C., read-out: IC50 inhibition of [3H]AS binding): 3.79 nM
Kd (dog NPC1L1; dog NPC1L1/TsA201 cells, read-out: Kd (saturation binding)): 2.15 ± 0.39 nM
Ki (dog NPC1L1; dog NPC1L1/TsA201 cells, read-out: Ki (competition with [3H]AS)): 1 ± 0.11 nM
Structure (SMILES): CS(=O)(=O)NCCCc1ccc(N2C(=O)[C@H](CC[C@H](O)c3ccc(F)cc3)[C@H]2c2ccc(O[C@@H]3O[C@H](C(=O)O)[C@@H](O)[C@H](O)[C@H]3O)cc2)cc1 [AS, 4-[(2S,3R)-3-[(3S)-3-(4-fluorophenyl)-3-hydroxypropyl]-1-(4-{3-[(methylsulfonyl)amino]propyl}phenyl)-4-oxoazetidin-2-yl]phenyl β-D-gluteopyranosiduronic acid]

Structure (SMILES): CC[C@H](C)C(=O)O[C@H]1C[C@@H](C)C=C2C=C[C@H](C)[C@H](CC[C@@H]3C[C@@H](O)CC(=O)O3)[C@H]21 [lovastatin]
effect on [3H]AS binding [4]: doubles
effect on [3H]AS binding ([4]; listed as Lovastatin): increase
effect on surface expression of NPC1L1 ([4]; cells grown in 10% FBS): does not cause any significant effect
